Results taken from patent US20080107625A1, “Inhibitors of Hepatitis C Virus” (Bristol-Myers Squibb Company, priority 2006, published 2008).

## CC(C)(C)OC(=O)N[C@H]1CCCOC/C=C\[C@@H]2C[C@@]2(C(=O)NS(=O)(=O)C2CC2)NC(=O)[C@@H]2C[C@@H](OCc3ccccc3)CN2C1=O [Compound 5, (1S,4R,6S,14S,18R,7-cis)-18-benzyloxy-14-tert-butoxycarbonylamino-4-cyclopropanesulfonylaminocarbonyl-2,15-dioxo-3,16-diaza-10-oxatricyclo[14.3.0.04,6]nonadec-7-ene]
  melting point: 147 to 149 °C
